Experimental data reported in PubChem BioAssay AID1996.
Converted amounts (≈) assume the structure as drawn.

Settings: buffer; pH 7.4; 200.0 µM

Row | SMILES | solubility kinetic [mg/mL]
1 | CC1CCC(NC(=O)CSc2nncn2C)CC1 (configuration not stated) | > 0.0403
2 | COc1ccccc1NC(=S)N1CCCCCC1 | > 0.0397
3 | Cc1ccc(SCC(=O)NC(C)c2ccccc2)cc1 (configuration not stated) | > 0.0428
4 | Cc1cccc(C(=O)NC(=O)Nc2c(C)cc(C)nc2C)c1 | > 0.0446
5 | Cc1c(C)n(Cc2ccccc2)c2ncnc(Cl)c12 | 0.0003 (≈ 1.1 µM)
6 | COc1ccccc1OCC(=O)Nc1ccc2c(c1)n(C)c(=O)n2C | > 0.0512
7 | COc1ccc2[nH]c(=O)c(CN(C)C(=O)c3cccs3)cc2c1 | 0.0124 (≈ 37.8 µM)
8 | Cc1cccc(C)c1NC(=O)C(C)N1CCCCC1 (configuration not stated) | 0.0383 (≈ 147 µM)
9 | CC1(C)OC(C)(C)/C(=C\c2ccc(OCC(N)=O)cc2)C1=O | 0.028 (≈ 92.3 µM)
10 | COc1cc(NC(=O)COC(=O)C=C(C)C)c(C)cc1[N+](=O)[O-] | 0.0172 (≈ 53.4 µM)
11 | Cc1cc(Nc2cccc(F)c2)nc(N2CCOCC2)n1 | 0.0362 (≈ 126 µM)
12 | O=C(NC1CCN(C(=O)c2cccc([N+](=O)[O-])c2)CC1)c1ccccc1 | > 0.053
13 | CCCOc1ccc(N2C(=O)CC(NCC(=O)OCC)C2=O)cc1 (configuration not stated) | > 0.0502
14 | CCCCN1C(=O)N(c2ccccc2Cl)C(C)(O)CC1(C)C (configuration not stated) | 0.0476 (≈ 147 µM)
15 | Cc1ccn2cc(-c3cccc([N+](=O)[O-])c3)nc2c1 | 0.0057 (≈ 22.5 µM)
16 | CC(=O)c1c(C)[nH]c(C(=O)O)c1C | > 0.0272
17 | CC(=O)C1=C(C)OC(N)=C(C#N)C1c1cccc2ccccc12 (configuration not stated) | 0.0376 (≈ 124 µM)
18 | Cc1noc(C)c1NC(=O)NC(c1ccccc1)c1ccccc1 | 0.0102 (≈ 31.7 µM)
19 | Cc1nc(SCC(=O)NC2CCCC2)[nH]c(=O)c1C | 0.0384 (≈ 136 µM)
20 | Cc1noc(C)c1S(=O)(=O)Nc1ccccc1OC(F)(F)F | 0.0486 (≈ 145 µM)
21 | COc1ccc2c(c1)C1OCCC1C(c1ccco1)N2 (configuration not stated) | > 0.0407
22 | Cc1cccc(C(=O)OCC(=O)c2csc(N3CCCCC3)n2)c1[N+](=O)[O-] | 0.0028 (≈ 7.19 µM)
23 | Cc1cc(C)c(C)c(S(=O)(=O)NCc2ccc(C(=O)N3CCN(C)CC3)cc2)c1C | > 0.0644
24 | CCc1ccc(N2CC(C(=O)N3CCCC3)CC2=O)cc1 (configuration not stated) | 0.0352 (≈ 123 µM)
25 | COCc1nc2oc3ccc(F)cc3c(=O)c2cc1C(=O)OC | 0.0104 (≈ 32.8 µM)

Row | SMILES | solubility kinetic [mg/mL]
26 | C=CCN(CC=C)C(=S)Nc1cc(Cl)ccc1OC | > 0.0445
27 | O=C(O)c1ccc(N=Cc2c(O)[nH]c(=O)[nH]c2=O)cc1 | > 0.0413
28 | N=c1c2ccccc2nc2n1CCCCCCCCCCC2 | 0.0346 (≈ 116 µM)
29 | CN(C)c1nc(N(C)C)nc(N2CC(=O)N(c3ccccc3)C2=N)n1 | 0.0084 (≈ 24.7 µM)
30 | N#Cc1cccc(S(=O)(=O)NCCOc2ccccc2F)c1 | > 0.0481
31 | O=c1[nH]c(=S)[nH]c(O)c1/C=C1/C=c2ccccc2=N1 | 0.0018 (≈ 6.63 µM)
32 | CC1CCCCC1NC(=O)CO/N=C/c1ccc(OC(F)F)cc1 (configuration not stated) | 0.0087 (≈ 25.6 µM)
33 | O=C(Nc1ccc(Br)cc1)N1CCc2ccccc2C1 | 0.0011 (≈ 3.32 µM)
34 | CCNc1nc(Cl)nc(NC2CCCCC2)n1 | 0.0184 (≈ 71.9 µM)
35 | Cc1cccc(C)c1NC(=O)CN(C)CC(=O)N1CC(=O)Nc2ccccc21 | > 0.0571
36 | COc1ccccc1NS(=O)(=O)c1ccc2oc(N)nc2c1 | > 0.0479
37 | CCOC(=O)CNC(=S)N(Cc1ccccc1)Cc1ccccc1F | 0.0117 (≈ 32.5 µM)
38 | COC(=O)CSc1nccc(-c2ccc(F)cc2)c1C#N | < 0.0003
39 | CC1SCC(=O)N(CC(=O)NCCc2ccccc2)C1=O (configuration not stated) | > 0.046
40 | COc1ccc(F)cc1S(=O)(=O)Nc1ccncc1 | > 0.0423
41 | COc1ccc(N2CCN(c3nccs3)CC2)cc1 | > 0.0413
42 | O=[N+]([O-])c1cnc(Nc2ccc(Cl)cn2)c([N+](=O)[O-])c1 | 0.0018 (≈ 6.09 µM)
43 | O=C(CSc1ccccc1)NCc1ccccc1 | 0.0226 (≈ 87.8 µM)
44 | CC(=O)O.O=C(NCC1CCCCN1)c1cc(OCC(F)(F)F)ccc1OCC(F)(F)F (configuration not stated) | > 0.0712
45 | Cn1c(/C(C#N)=C(\O)c2cc(Cl)sc2Cl)nc2ccccc21 | 0.0009 (≈ 2.57 µM)
46 | O=C(Nc1ccncc1)OCc1ccccc1 | > 0.0342
47 | Cc1noc(C)c1COC(=O)c1ccc(N(C)C)cc1 | 0.0016 (≈ 5.83 µM)
48 | COc1cccc(-c2ocnc2C(=O)Nc2ccc3c(c2)CCC3)c1 | < 0.0004
49 | COc1cccc(C(=O)Nc2cccc(-c3ccccc3)c2)c1 | 0.0025 (≈ 8.24 µM)
50 | NC(=O)CCSC(=S)N1CCOCC1 | > 0.0351

Row | SMILES | solubility kinetic [mg/mL]
51 | C1=CCN(Cc2ccccc2)C1 | 0.0041 (≈ 25.7 µM)
52 | COc1ccc(C(C)=O)cc1COC(=O)c1cccnc1SC | < 0.0007
53 | S=C(NCc1ccc(Cl)c(Cl)c1)NCc1ccco1 | 0.0231 (≈ 73.3 µM)
54 | NCCCS(=O)(=O)O | < 0.0003
55 | Cc1cc(C)cc(NCc2ccncc2)c1 | 0.0248 (≈ 117 µM)
56 | O=[N+]([O-])c1ccccc1CNC1CCCc2ccccc21 (configuration not stated) | 0.0208 (≈ 73.7 µM)
57 | COCCNC(=S)N(c1ccccc1)C(C)C | > 0.0379
58 | Cc1ccc(N(C)S(=O)(=O)c2cccc(C(=O)N3CCN(Cc4ccccc4)CC3)c2)cc1 | 0.023 (≈ 49.6 µM)
59 | COc1ccccc1NC(=O)c1cccc2c(Br)cccc12 | < 0.0008
60 | Cc1ccccc1C(=O)O/N=C(\N)c1ccccc1 | 0.0343 (≈ 135 µM)
61 | O=C(COC(=O)c1ccc([N+](=O)[O-])o1)Nc1ncc(Cl)cc1Cl | > 0.054
62 | N#C/C(=C\c1ccccc1)C(=O)Nc1nncs1 | > 0.0384
63 | COc1ccc(/C=C(\C#N)C(=O)NCc2ccccc2)cc1 | 0.0022 (≈ 7.53 µM)
64 | CC1=CCC2C(=O)N(c3ccc(S(N)(=O)=O)cc3)C(=O)C2C1 (configuration not stated) | > 0.0481
65 | CC(=O)Nc1nc2ccccc2n1Cc1ccc(Cl)cc1 | 0.0078 (≈ 26 µM)
66 | O=C(Nc1ccccc1)Nc1cccc2nsnc12 | 0.0057 (≈ 21.1 µM)
67 | Cn1c(SCC(=O)NCc2ccco2)nnc1C1CC1 | > 0.0439
68 | CC12CCC(=O)N1C(C(=O)Nc1nc3ccccc3s1)CS2 (configuration not stated) | 0.013 (≈ 39 µM)
69 | CCCc1cc(C(=O)N2CCCN(C)CC2)cs1 | > 0.04
70 | Cc1ccccc1CN(C)C(C)C(=O)NCc1ccccc1 (configuration not stated) | 0.0371 (≈ 125 µM)
71 | CCc1nonc1NC(=O)c1oc2cc(C)c(C)cc2c1C | 0.0003 (≈ 1 µM)
72 | COc1cc(OC)cc(C(=O)NC2CCSc3ccccc32)c1 (configuration not stated) | 0.0039 (≈ 11.8 µM)
73 | Cc1ccc(CNc2ncnc3cc(Cl)ccc23)cc1 | 0.005 (≈ 17.6 µM)
74 | CCN(CC)CCCNC(=S)Nc1ccc(Br)cc1 | > 0.0516
75 | COc1ccccc1C(=O)Nc1c[nH]c(=O)[nH]c1=O | 0.0034 (≈ 13 µM)

Row | SMILES | solubility kinetic [mg/mL]
76 | Cc1nccn1-c1c([N+](=O)[O-])c(=O)n(C)c2ccccc12 | > 0.0426
77 | COc1ccccc1CN(C)C(=O)c1cnc(C)cn1 | > 0.0407
78 | O=C(Nc1ccc(F)cc1)N1CCCCCC1 | > 0.0354
79 | CSc1ccccc1C(=O)NC(C)c1ccc(-n2ccnc2)cc1 (configuration not stated) | > 0.0506
80 | Cc1ccccc1C(=O)OCC(=O)N(C)c1ccccc1 | > 0.0425
81 | Cc1ccc(C(=O)CNc2cc(C)ccc2C)cc1 | < 0.0005
82 | Clc1ccc(N2CCN(Cc3ccc(Br)o3)CC2)cc1 | 0.0014 (≈ 3.94 µM)
83 | COC(=O)c1nc2ccccn2c1F | > 0.0291
84 | COc1cccc(OC)c1C(=O)Nc1ccccc1Sc1ccccc1 | 0.0036 (≈ 9.85 µM)
85 | COc1ccc(S(N)(=O)=O)cc1C(=O)OCC(=O)N1c2ccccc2NC(=O)C1(C)C | > 0.0671
86 | COc1ccc(C)cc1S(=O)(=O)NCc1cccs1 | 0.0424 (≈ 143 µM)
87 | O=C(c1ccc([N+](=O)[O-])cc1)N1CCCC1 | > 0.033
88 | Cc1ccnc(NC(=O)c2ccc([N+](=O)[O-])s2)c1 | 0.004 (≈ 15.2 µM)
89 | COc1cc2c(cc1OC)CN(C(=O)CCN1C(=O)C3CCCCC3C1=O)CC2 (configuration not stated) | 0.0462 (≈ 115 µM)
90 | O=C(Nc1cc(Cl)ccn1)C1(c2ccccc2)CC1(Cl)Cl (configuration not stated) | < 0.0004
91 | O=C(Nc1nc2ccccc2[nH]1)c1ccccc1OC(F)F | 0.0089 (≈ 29.3 µM)
92 | CC(C)CN(C(=O)C1CCCCC1)C1CCS(=O)(=O)C1 (configuration not stated) | > 0.0452
93 | O=C1[C@@H]2C(c3cccnc3)=NO[C@@H]2C(=O)N1c1ccc2ccccc2c1 | 0.043 (≈ 125 µM)
94 | COC(=O)CSc1nnc(CNC(=O)c2ccc(OC)c(OC)c2)n1C | > 0.0571
95 | CCOc1cc(CN2CCCCCC2)ccc1OC | 0.0274 (≈ 104 µM)
96 | O=C(NCCc1ccc(Cl)cc1Cl)c1cccnc1 | > 0.0443
97 | COc1cc(NC(=O)CN2CCCCCC2)cc(OC)c1 | > 0.0439
98 | CC1CCC(NS(=O)(=O)c2ccc(Cl)nc2)CC1 (configuration not stated) | 0.0339 (≈ 117 µM)
99 | Fc1ccc(NCc2nnc3n2CCCCC3)cc1 | > 0.039
100 | CN1C/C(=C/c2ccncc2)C(=O)/C(=C/c2ccncc2)C1 | 0.0409 (≈ 140 µM)

Row | SMILES | solubility kinetic [mg/mL]
101 | O=C(NCc1ccncc1)C1=NN(c2ccccc2)C(=O)CC1 | > 0.0463
102 | CCOc1ccc(CNCc2ccccc2Cl)cc1.Cl | 0.0316
103 | COc1cccc(C(=O)OCC(=O)N2CCc3ccccc3C2)c1 | 0.0461 (≈ 142 µM)
104 | CCOC(=O)C(O)C1CCc2c([nH]c3ccc(C)cc23)C1=O (configuration not stated) | 0.0226 (≈ 75 µM)
105 | Nc1nccc(-c2ccc(-n3cnc4ccccc43)cc2)n1 | 0.002 (≈ 6.96 µM)
106 | Cc1cc(Cl)ccc1C(=O)C1CCCN(Cc2ccon2)C1 (configuration not stated) | 0.0463 (≈ 145 µM)
107 | O=C(COc1ccccc1)Nc1ccccc1C(=O)NC1CC1 | 0.0064 (≈ 20.6 µM)
108 | COc1ccc(Nc2nc3cc(C)ccc3cc2C#N)cc1 | < 0.0002
109 | OCCN(Cc1ccccc1)C(=S)Nc1ccc(F)cc1 | 0.0431 (≈ 142 µM)
110 | O=C(O)c1cccc(N2C(=O)CSC2=S)c1 | > 0.038
111 | CC(=O)Nc1ccc(S(=O)(=O)NCCC(=O)NC(C)c2cccs2)cc1 (configuration not stated) | > 0.0593
112 | O=C(NC1CCCc2ccccc21)c1ccccn1 (configuration not stated) | 0.0359 (≈ 142 µM)
113 | COc1ccc(CCNC(=O)NS(=O)(=O)c2ccc(C)cc2)cc1OC | > 0.0568
114 | O=[N+]([O-])c1cc(Cl)ccc1Nc1ccccc1 | < 0.0003
115 | O=C(O)CCCCCNS(=O)(=O)c1ccc2c(c1)OCCO2 | > 0.0494
116 | COC(=O)C1CCN(Cc2nnc(-c3ccccc3)o2)CC1 | > 0.0452
117 | O=C(Cn1cncn1)N/N=C/c1ccccc1Cl | > 0.0396
118 | Nc1cc(S(=O)(=O)N2CCOCC2)ccc1N1CCCCC1 | 0.0422 (≈ 130 µM)
119 | Cc1ccc(C(=O)NCCCNc2ccccc2[N+](=O)[O-])cc1 | 0.0034 (≈ 10.9 µM)
120 | COc1ccc(S(=O)(=O)N2CCOCC2)cc1NC(=O)COC(=O)Cc1ccccc1 | 0.0517 (≈ 115 µM)
121 | O=C(NC1CC1)c1cc(=S)[nH]c2ccccc12 | > 0.0366
122 | COc1ccc(NC(=O)C2CCCN(c3ncccn3)C2)cc1 (configuration not stated) | 0.0145 (≈ 46.4 µM)
